The text below walks through data of patent publication US20060188913A1, “Methods and products for enhancing immune responses using imidazoquinoline compounds” (University of Iowa Research Foundation, priority 2001, published 2006).

The subject of assay [1] is human PBMC. The assay can be described thus: IP-10 secretion by human PBMC (ELISA). The class given is cell-based. The conditions noted are these: 48 hours, ODN 0.2-3.0 μg/ml versus R-848 0.01-1.0 μg/ml, FIG. 6A. The protocol:
This experiment investigated the induction of the Th1 cytokine IFN-gamma as well as the Th1-related chemokine IP-10 (IFN-gamma inducible protein). Unfractionated human PBMC from three donors were incubated for 48 hours in the presence of varying concentrations of R-848 (0.01-1.0 μg/ml), varying concentrations of CpG ODN 2006 (0.2-3.0 μg/ml), varying concentrations of negative control ODN 5177 (0.2-3.0 μg/ml), SEB (50 ng/ml), or media alone, and then the concentrations of IP-10 and IFN-gamma in the supernatant were measured by ELISA.
In FIG. 6B, the combined effects of R-848 and CpG ODN (e.g., #2006) on IP-10 secretion are shown. Human PBMCs from three different donors were incubated for 48 hours with the indicated concentrations of ODNs and R-848, either individually or together. Supernatants were harvested and IP-10 was measured by ELISA. The data represent mean cytokine amounts.
In general terms: An ELISA detects its analyte on a solid surface through an enzyme-linked reagent.

The target of assay [2] is T1, hTLR9 (Homo sapiens, UniProt Q9NR96, H530R/Q688R).
T1 construct: 293-TLR9-Luc cells contain a genomic copy of the hTLR9 open reading frame and the NF-kappa B-luciferase cassette; expressed in transfected cells; host or cells: 293-TLR9-Luc (stably transfected human embryo kidney 293 cells)
T1 sequence (Q9NR96 26-1032 H530R/Q688R): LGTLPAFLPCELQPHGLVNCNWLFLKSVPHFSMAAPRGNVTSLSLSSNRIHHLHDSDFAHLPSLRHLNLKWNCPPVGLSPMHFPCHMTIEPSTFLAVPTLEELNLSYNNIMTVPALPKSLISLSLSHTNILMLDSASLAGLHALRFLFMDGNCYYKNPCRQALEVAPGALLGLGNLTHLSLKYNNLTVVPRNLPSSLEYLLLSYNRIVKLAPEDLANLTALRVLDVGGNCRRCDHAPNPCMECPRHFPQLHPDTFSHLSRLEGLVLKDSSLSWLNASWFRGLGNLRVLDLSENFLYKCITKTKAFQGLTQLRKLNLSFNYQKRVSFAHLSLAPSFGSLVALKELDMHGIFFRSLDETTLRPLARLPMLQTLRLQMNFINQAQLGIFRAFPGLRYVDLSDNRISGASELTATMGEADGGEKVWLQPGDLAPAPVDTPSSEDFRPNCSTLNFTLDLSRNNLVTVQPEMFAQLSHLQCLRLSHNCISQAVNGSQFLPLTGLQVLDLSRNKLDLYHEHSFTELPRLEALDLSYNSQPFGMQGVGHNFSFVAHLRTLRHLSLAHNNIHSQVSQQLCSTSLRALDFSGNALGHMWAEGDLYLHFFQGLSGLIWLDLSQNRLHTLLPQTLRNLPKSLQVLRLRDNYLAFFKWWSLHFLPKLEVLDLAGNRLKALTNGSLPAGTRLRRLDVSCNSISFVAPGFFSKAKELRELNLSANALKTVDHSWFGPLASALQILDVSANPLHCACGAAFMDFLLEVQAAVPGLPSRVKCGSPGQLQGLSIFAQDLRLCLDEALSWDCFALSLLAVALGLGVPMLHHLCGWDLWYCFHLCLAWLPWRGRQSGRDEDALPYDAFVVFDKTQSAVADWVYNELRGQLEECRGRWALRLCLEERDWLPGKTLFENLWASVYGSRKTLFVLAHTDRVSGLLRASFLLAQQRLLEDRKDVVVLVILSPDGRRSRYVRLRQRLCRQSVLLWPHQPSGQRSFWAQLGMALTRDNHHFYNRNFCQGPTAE
The assay can be described thus: NF-kappa B luciferase activation in 293T cells transiently transfected with hTLR9. The conditions noted are these: hTLR9-transfected 293T cells, positive control for transfection. In kind it is cell-based. The protocol: Cells used for transfections were 293T (human embryo kidney cells, T-antigen transfected) or 293-TLR9-Luc (stable transfectants, human embryo kidney cells expressing the human TLR9 receptor and containing a genomic NF-kappa B-luciferase cassette).
Transfections were performed in six-well plates. Cells were plated the day before transfection at 4×10^5/well in DMEM+10% FCS.
Constructs: TLR cDNAs were cloned into pcDNA3.1. NF-kappa B activation was measured by using an 5× NF-kappa B-Luciferase construct (Stratagene). Transfection efficiency was determined by using a beta-galactosidase (beta-gal) reporter construct (p beta-Gal-Control, Clontech).
Stimulation was performed 24 h after transfection. Medium of the cells was reduced to 1 ml (without medium change) and cells were stimulated with indicated amounts of R-848, LPS, ODN 8954, 2006 and IL-1 beta for 16 h.
Cell extracts were prepared by lysing the cells in 100 μl reporter lysis buffer using the freeze-thaw method. NF-kappa B stimulation was measured through luciferase activity (Promega). All data were normalized for beta-gal expression. Stimulation indices were calculated in reference to luciferase activity of medium without addition of ODN.
293T cells, stably transfected with a NF-kappa B-luciferase reporter construct, were transiently transfected with plasmids (pcDNA3.1 constructs) coding for full length hTLR2, hTLR7, hTLR8 and hTLR9. […]

For the substance CpG ODN 2006, the IP-10 induction result in assay [1] is recorded as “induced similar amounts of IP-10 compared to R-848”. Besides, in assay [2], the “NF-kappa B activation” value stood at 3 fold.
